In patent US10004732B2 (Novartis AG, priority 2014, dated 2018):
Where a name gives a salt, the structure may show the parent alone. One block for each compound: values may come before it.

Columns and labels:
[1] = target: PI 4-kinase beta (Homo sapiens, UniProt Q9UBF8); assay: Kinase Glo Luminescent Kinase Assay (Kglo), assay D; format: biochemical; settings: read-out: Assay D PI4Kβ IC50
Description: Kinase Glo Luminescent Kinase Assay (Kglo) for Pb 3-Kinase Alpha (A), Pb 3-Kinase Beta (B), Vps34 (C), Pb 4-Kinase Beta (D)
The Kinase Glo Luminescent Kinase Assay (Promega, Madison/Wis., USA) is a homogeneous HTS method of measuring kinase activity by quantifying the amount of ATP remaining in solution following a kinase reaction.
L-α-phosphatidylinositol (PI), provided as 10 mg/ml solution in methanol, was transferred into a glass tube and dried under a nitrogen beam. It was then resuspended in 3% OctylGlucoside (1-0-n-octyl-beta-D-glucopyranoside) by vortexing and stored at 4° C. 5 μL of a mix of PI/OctylGlucoside with the PI 3-kinase alpha and PI 3-kinase beta subtypes, or Vps34 or PI 4-kinase beta were added. Kinase reactions were started by the addition of 5 μl of an ATP-mix containing in a final volume 10 μL 10 mM TRIS-HCl pH 7.5, 3 mM MgCl2, 50 mM NaCl, 0.05% CHAPS, 1 mM DTT and 1 μM ATP at room temperature.
All fits were performed with the program XLfit4 (ID Business Solutions, Guildford, UK).

[2] = target: Vps34 (Homo sapiens, UniProt Q8NEB9); assay: Kinase Glo Luminescent Kinase Assay (Kglo), assay C; format: biochemical; settings: read-out: Assay C VPS34 IC50
Sequence of Vps34 (Q8NEB9 whole entry, species assumed): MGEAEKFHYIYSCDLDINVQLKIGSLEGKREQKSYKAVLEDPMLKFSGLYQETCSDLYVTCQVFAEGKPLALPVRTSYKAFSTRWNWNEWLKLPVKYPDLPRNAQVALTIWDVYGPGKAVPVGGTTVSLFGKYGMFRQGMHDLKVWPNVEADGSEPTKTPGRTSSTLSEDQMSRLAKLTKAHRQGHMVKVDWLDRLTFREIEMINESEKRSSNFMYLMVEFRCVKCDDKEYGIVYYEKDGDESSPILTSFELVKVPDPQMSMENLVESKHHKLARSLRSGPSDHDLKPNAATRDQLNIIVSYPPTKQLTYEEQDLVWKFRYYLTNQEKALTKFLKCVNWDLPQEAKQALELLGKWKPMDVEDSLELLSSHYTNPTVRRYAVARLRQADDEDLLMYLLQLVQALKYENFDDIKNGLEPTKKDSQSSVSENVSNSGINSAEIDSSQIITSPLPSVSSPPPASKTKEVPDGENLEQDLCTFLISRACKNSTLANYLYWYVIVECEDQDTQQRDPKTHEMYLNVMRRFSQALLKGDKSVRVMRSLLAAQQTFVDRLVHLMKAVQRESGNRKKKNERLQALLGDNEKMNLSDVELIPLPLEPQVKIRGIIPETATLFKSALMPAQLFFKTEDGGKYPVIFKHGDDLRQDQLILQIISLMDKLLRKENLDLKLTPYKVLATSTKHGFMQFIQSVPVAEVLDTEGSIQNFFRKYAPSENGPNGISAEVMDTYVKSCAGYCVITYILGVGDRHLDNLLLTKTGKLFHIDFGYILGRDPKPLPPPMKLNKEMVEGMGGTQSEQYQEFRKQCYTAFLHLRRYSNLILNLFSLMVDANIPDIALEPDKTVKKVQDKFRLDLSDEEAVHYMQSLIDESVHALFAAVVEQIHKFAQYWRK

[3] = target: T1, PI 3-kinase beta (Homo sapiens, UniProt P42338); assay: Kinase Glo Luminescent Kinase Assay (Kglo), assay B; format: biochemical; settings: read-out: Assay B PI3Kβ IC50
Target sequence in this assay (P42338 whole entry): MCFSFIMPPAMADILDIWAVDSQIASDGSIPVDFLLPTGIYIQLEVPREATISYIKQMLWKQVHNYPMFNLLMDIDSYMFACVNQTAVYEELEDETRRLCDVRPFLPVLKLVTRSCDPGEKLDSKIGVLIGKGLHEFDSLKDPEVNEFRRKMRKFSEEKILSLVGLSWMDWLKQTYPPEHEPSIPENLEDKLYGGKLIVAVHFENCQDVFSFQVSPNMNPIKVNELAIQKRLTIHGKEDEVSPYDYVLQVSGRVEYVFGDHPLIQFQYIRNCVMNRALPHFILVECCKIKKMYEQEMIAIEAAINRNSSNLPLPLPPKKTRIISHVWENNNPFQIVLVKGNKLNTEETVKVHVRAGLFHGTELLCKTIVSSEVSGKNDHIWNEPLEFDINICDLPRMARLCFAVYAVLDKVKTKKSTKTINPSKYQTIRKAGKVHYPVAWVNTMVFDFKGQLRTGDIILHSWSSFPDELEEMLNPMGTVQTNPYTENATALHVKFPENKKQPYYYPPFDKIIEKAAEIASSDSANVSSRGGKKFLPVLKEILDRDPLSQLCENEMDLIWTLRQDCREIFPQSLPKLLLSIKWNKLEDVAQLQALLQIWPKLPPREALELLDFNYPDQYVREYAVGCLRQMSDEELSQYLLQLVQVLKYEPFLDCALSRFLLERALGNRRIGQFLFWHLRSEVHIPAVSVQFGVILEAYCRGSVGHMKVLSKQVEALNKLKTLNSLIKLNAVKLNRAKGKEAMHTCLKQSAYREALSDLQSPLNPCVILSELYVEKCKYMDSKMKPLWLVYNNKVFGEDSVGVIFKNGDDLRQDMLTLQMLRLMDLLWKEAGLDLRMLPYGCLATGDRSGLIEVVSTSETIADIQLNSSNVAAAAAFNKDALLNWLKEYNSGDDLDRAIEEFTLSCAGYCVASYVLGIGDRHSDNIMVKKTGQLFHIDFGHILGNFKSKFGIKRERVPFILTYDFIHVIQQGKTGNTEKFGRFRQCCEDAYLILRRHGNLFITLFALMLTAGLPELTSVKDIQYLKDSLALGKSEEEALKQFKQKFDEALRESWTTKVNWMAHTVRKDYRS
Target sequence in this assay (P27986 461-568 partner): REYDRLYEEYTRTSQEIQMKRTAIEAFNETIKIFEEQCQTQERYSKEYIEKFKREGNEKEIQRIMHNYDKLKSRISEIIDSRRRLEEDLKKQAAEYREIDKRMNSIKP

[4] = target: T1, PI 3-kinase beta; assay: Cellular assay I1, p-Akt (S473) in Rat-1 cells, Surefire format; format: cell-based; settings: non-asterisked data: version I1 (Surefire format), Rat-1 cells; read-out: Assay I PI3Kβ IC50
Target sequence in this assay (P42338 whole entry): as the sequence (P42338 whole entry) above
Target sequence in this assay (Q63787 whole entry partner): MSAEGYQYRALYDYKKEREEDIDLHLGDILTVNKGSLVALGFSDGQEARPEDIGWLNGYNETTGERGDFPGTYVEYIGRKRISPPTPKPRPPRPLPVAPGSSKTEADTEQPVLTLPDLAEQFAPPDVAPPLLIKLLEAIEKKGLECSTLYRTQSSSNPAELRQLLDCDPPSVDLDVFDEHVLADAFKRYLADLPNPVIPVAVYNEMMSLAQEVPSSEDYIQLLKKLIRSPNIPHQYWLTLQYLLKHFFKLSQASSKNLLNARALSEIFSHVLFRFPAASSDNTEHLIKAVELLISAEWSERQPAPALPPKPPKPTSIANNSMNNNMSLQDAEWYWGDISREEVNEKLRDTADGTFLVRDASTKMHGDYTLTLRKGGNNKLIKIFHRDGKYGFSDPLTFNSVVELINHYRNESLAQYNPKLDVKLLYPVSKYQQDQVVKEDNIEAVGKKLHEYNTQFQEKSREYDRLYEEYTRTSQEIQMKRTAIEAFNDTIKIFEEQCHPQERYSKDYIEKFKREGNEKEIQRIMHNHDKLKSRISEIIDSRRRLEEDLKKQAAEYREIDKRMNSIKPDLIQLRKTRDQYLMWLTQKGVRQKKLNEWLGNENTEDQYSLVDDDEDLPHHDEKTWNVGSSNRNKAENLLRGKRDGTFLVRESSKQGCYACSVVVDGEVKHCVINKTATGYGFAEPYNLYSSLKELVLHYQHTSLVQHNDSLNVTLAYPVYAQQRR

[5] = target: T2, PI 3-kinase delta (Homo sapiens, UniProt O00329); assay: TR-FRET Adapta assay, assay F; settings: read-out: Assay F PI3Kδ IC50
[6] = target: mTOR (Homo sapiens, UniProt P42345); assay: Lanthascreen kinase binding assay, assay G; settings: read-out: Assay G mTOR IC50
Description: Lanthascreen™ Kinase Binding Assay for mTOR (G)
Binding of an inhibitor to the kinase competes for binding with the tracer, resulting in a loss of FRET.
50 nL of compound dilutions were dispensed onto white 384-well small volume polystyrene plate.

[7] = target: T3, PI 3-kinase gamma (Homo sapiens, UniProt P48736); assay: TR-FRET Adapta assay, assay E; format: biochemical; settings: read-out: Assay E PI3Kγ IC50
[8] = target: T4, PI 3-kinase alpha (Homo sapiens, UniProt P42336); assay: Cellular assay H1, p-Akt (S473) in Rat-1 cells, Surefire format; format: cell-based; settings: non-asterisked data: version H1 (Surefire format), Rat-1 cells; read-out: Assay H PI3Kα IC50
Target sequence in this assay (P42336 whole entry): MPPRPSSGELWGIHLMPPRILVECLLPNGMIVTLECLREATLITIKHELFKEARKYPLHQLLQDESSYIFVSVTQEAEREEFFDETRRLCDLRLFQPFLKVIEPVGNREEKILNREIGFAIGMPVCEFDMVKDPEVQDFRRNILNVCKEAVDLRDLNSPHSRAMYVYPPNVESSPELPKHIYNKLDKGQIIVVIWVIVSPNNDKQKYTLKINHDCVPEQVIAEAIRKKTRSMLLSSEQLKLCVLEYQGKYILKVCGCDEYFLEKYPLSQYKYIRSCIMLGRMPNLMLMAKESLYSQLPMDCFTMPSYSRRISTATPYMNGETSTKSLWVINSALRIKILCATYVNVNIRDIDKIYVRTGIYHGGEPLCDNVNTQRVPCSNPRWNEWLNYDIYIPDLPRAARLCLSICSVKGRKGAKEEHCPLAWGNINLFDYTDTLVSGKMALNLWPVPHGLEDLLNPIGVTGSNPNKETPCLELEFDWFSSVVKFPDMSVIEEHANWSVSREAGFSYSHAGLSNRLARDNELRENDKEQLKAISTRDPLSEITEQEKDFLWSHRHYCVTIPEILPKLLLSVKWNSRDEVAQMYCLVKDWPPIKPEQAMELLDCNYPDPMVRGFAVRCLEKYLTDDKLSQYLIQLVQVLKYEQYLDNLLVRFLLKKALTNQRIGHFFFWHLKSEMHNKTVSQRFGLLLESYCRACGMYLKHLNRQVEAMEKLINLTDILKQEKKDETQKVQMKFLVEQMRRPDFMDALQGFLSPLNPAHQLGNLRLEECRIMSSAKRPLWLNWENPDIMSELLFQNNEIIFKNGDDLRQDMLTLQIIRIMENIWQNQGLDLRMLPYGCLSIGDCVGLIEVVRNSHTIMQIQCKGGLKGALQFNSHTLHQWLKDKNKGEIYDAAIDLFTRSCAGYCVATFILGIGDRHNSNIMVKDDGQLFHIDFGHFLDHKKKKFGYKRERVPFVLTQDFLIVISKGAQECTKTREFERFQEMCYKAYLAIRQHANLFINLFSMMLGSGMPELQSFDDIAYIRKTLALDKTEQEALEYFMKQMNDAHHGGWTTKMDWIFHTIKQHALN
Target sequence in this assay (Q63787 whole entry partner): as the sequence (Q63787 whole entry partner) above

[9] = target: T4, PI 3-kinase alpha; assay: Kinase Glo Luminescent Kinase Assay (Kglo), assay A; format: biochemical; settings: read-out: Assay A PI3Kα IC50
Target sequence in this assay (P42336 whole entry): as the sequence (P42336 whole entry) above

[10] = target: T2, PI 3-kinase delta; assay: Cellular assay J1, p-Akt (S473) in Rat-1 cells, Surefire format; format: cell-based; settings: non-asterisked data: version J1 (Surefire format), Rat-1 cells; read-out: Assay J PI3Kδ IC50
[11] = target: T3, PI 3-kinase gamma; assay: Cellular U937 AKT assay K1 (MSD); format: cell-based; settings: U937 cells, K1 format; read-out: Assay K1 PI3Kγ IC50
[12] = Microsomal clearance assay (M); settings: intrinsic clearance in rat liver microsomes
Description: The experiments were performed in 96-well glass plates at 37° C. on an automated Tecan EVO platform. Test compounds at a concentration of 10 mM in pure DMSO were diluted 1:1000 in water to 10 μM. […] Reactions were initiated by the addition of 150 μL of a cofactor solution containing 2 mM NADPH.

Sequence of PI 4-kinase beta (Q9UBF8 whole entry): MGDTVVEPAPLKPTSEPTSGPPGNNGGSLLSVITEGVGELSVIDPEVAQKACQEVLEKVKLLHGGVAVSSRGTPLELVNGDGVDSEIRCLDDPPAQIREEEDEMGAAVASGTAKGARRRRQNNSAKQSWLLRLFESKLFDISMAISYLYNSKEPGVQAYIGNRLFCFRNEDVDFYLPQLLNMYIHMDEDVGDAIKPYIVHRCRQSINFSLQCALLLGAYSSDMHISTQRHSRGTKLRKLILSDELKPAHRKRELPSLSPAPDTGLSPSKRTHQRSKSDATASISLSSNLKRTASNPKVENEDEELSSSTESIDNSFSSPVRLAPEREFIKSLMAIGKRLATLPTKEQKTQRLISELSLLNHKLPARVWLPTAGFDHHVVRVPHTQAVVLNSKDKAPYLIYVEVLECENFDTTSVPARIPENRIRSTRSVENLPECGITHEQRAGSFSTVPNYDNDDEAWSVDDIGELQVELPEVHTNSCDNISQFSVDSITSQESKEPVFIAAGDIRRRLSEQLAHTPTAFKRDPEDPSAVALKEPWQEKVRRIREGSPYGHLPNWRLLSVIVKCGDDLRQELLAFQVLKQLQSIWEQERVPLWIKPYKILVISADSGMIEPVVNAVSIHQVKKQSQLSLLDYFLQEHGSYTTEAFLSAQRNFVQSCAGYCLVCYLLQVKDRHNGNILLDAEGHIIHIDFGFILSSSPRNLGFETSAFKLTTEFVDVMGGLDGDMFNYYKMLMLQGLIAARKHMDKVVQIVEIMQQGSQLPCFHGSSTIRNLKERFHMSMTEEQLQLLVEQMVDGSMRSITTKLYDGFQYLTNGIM

SMILES: Cc1ccc(S(=O)(=O)NOCCN(C)C)cc1-c1cnc(N)c(-n2cncn2)n1 [Example 112.2, 3-(5-Amino-6-(1H-1,2,4-triazol-1-yl)pyrazin-2-yl)-N-(2-(dimethylamino)ethoxy)-4-methylbenzenesulfonamide]
IC50 [1]: 5400 nM
IC50 [2]: > 10000 nM
IC50 [3]: 1300 nM
IC50 [4]: > 10000 nM
IC50 [5]: 1200 nM
IC50 [6]: > 10000 nM
IC50 [7]: 104 nM
IC50 [9]: 860 nM
IC50 [10]: > 10000 nM
IC50 [11]: 137 nM

SMILES: Cc1ccc(S(=O)(=O)NCCC(C)(C)O)cc1-c1cnc(N)c(-c2cccs2)n1 [Example 119.45]
IC50 [1]: 2460 nM
IC50 [2]: > 9100 nM
IC50 [3]: 3600 nM
IC50 [5]: 100 nM
IC50 [6]: 8690 nM
IC50 [7]: 12 nM
IC50 [9]: 150 nM
Assay M RLM CI(int) [12]: 188 µL/min/mg
IC50 [11]: 85 nM

SMILES: Cc1ccc(S(=O)(=O)N2CCC(F)(F)C2)cc1-c1cnc(N)c(-n2cncn2)n1 [Example 127.3]
IC50 [1]: 3400 nM
IC50 [2]: > 10000 nM
IC50 [3]: 3200 nM
IC50 [5]: > 10000 nM
IC50 [6]: > 10000 nM
IC50 [7]: 160 nM
IC50 [9]: 380 nM
IC50 [11]: 371 nM

SMILES: Cc1cc(-c2nc(-c3cc(S(=O)(=O)NCCC(C)(O)C(F)(F)F)ccc3C)cnc2N)ccn1 (centres unmarked) [Example 129.13, 3-(5-amino-6-(2-methylpyridin-4-yl)pyrazin-2-yl)-4-methyl-N-(4,4,4-trifluoro-3-hydroxy-3-methylbutyl)benzenesulfonamide]
IC50 [1]: > 9100 nM
IC50 [2]: > 9100 nM
IC50 [3]: > 9100 nM
IC50 [4]: > 10000 nM
IC50 [5]: 260 nM
IC50 [6]: > 9100 nM
IC50 [7]: 28 nM
IC50 [9]: 300 nM
Assay M RLM CI(int) [12]: 170 µL/min/mg
IC50 [10]: 5860 nM
IC50 [11]: 144 nM

SMILES: Cc1ccc(S(=O)(=O)NCCC(C)(O)C(F)(F)F)cc1-c1cnc(N)c(-n2cncn2)n1 (centres unmarked) [Example 127.24]
IC50 [1]: 1800 nM
IC50 [2]: > 10000 nM
IC50 [3]: 790 nM
IC50 [5]: 320 nM
IC50 [6]: 4700 nM
IC50 [7]: 27 nM
IC50 [9]: 200 nM
IC50 [11]: 168 nM

SMILES: Cc1csc(-c2nc(-c3cc(S(=O)(=O)NCCC(C)(C)O)ccc3C)cnc2N)c1 [Example 119.43]
IC50 [1]: > 9100 nM
IC50 [2]: > 9100 nM
IC50 [3]: 1780 nM
IC50 [5]: 100 nM
IC50 [6]: 3370 nM
IC50 [7]: 54 nM
IC50 [9]: 250 nM
Assay M RLM CI(int) [12]: 136 µL/min/mg
IC50 [11]: 60 nM

SMILES: Cc1ccc(S(=O)(=O)NCC2(CO)CCCC2)cc1-c1cnc(N)c(-n2cncn2)n1 [Example 127.25]
IC50 [1]: 4400 nM
IC50 [2]: > 10000 nM
IC50 [3]: 650 nM
IC50 [5]: 340 nM
IC50 [6]: 3300 nM
IC50 [7]: 31 nM
IC50 [9]: 130 nM
Assay M RLM CI(int) [12]: 493 µL/min/mg
IC50 [11]: 66 nM

SMILES: Cc1ccc(S(=O)(=O)NCC2COCCN2C)cc1-c1cnc(N)c(-c2cn(C)nc2C)n1 (centres unmarked) [Example 128.2, 3-(5-Amino-6-(1,3-dimethyl-1H-pyrazol-4-yl)pyrazin-2-yl)-4-methyl-N-((4-methylmorpholin-3-yl)methyl)benzenesulfonamide]
IC50 [1]: > 10000 nM
IC50 [2]: > 10000 nM
IC50 [5]: 450 nM
IC50 [7]: 49 nM
IC50 [8]: 1910 nM
IC50 [9]: 270 nM
Assay M RLM CI(int) [12]: 27 µL/min/mg
IC50 [10]: 1570 nM
IC50 [11]: 90 nM

SMILES: CCc1noc(-c2nc(-c3cc(S(=O)(=O)N4CCC(CO)CC4)ccc3C)cnc2N)n1 [Example 141, (1-((3-(5-Amino-6-(3-ethyl-1,2,4-oxadiazol-5-yl)pyrazin-2-yl)-4-methylphenyl)sulfonyl)piperidin-4-yl)methanol]
IC50 [1]: > 9100 nM
IC50 [2]: > 9100 nM
IC50 [3]: > 9100 nM
IC50 [4]: 8750 nM
IC50 [5]: 340 nM
IC50 [6]: > 9100 nM
IC50 [7]: 54 nM
IC50 [8]: 4700 nM
IC50 [9]: 1770 nM
IC50 [10]: 5310 nM
IC50 [11]: 947 nM

The next lines start with the values.

IC50 [1]: 7700 nM
IC50 [2]: 7990 nM
IC50 [3]: > 9100 nM
IC50 [4]: 1720 nM
IC50 [5]: 380 nM
IC50 [6]: 5610 nM
IC50 [7]: 161 nM
IC50 [8]: 4070 nM
IC50 [9]: 820 nM
IC50 [10]: 2880 nM
IC50 [11]: 860 nM
SMILES: Cc1ccc(S(=O)(=O)NCCC(C)(C)O)cc1-c1cnc(N)c(-c2cccnc2Cl)n1 [Example 119.6]

IC50 [1]: 5600 nM
IC50 [2]: > 10000 nM
IC50 [3]: 750 nM
IC50 [4]: > 10000 nM
IC50 [5]: 140 nM
IC50 [7]: 25 nM
IC50 [8]: > 10000 nM
IC50 [9]: 100 nM
Assay M RLM CI(int) [12]: 29 µL/min/mg
IC50 [10]: > 10000 nM
IC50 [11]: 2280 nM
SMILES: Cc1ccc(S(=O)(=O)NC[C@H]2CCCN2)cc1-c1cnc(N)c(-c2cn(C)nc2C)n1 [Example 106, (R)-3-(5-Amino-6-(1,3-dimethyl-1H-pyrazol-4-yl)pyrazin-2-yl)-4-methyl-N-(pyrrolidin-2-ylmethyl)benzenesulfonamide hydrochloride]

IC50 [1]: > 9550 nM
IC50 [3]: 3350 nM
IC50 [5]: 550 nM
IC50 [6]: 8800 nM
IC50 [7]: 92 nM
IC50 [9]: 550 nM
Assay M RLM CI(int) [12]: 62 µL/min/mg
IC50 [11]: 276 nM
SMILES: Cc1noc(-c2nc(-c3cc(S(=O)(=O)NC[C@H]4C[C@@H](O)C4)ccc3C)cnc2N)n1 [Example 96, 3-(5-Amino-6-(3-methyl-1,2,4-oxadiazol-5-yl)pyrazin-2-yl)-N-(((1s,3s)-3-hydroxycyclobutyl)methyl)-4-methylbenzenesulfonamide]

IC50 [1]: 1400 nM
IC50 [2]: 900 nM
IC50 [3]: 200 nM
IC50 [4]: > 10000 nM
IC50 [5]: 220 nM
IC50 [7]: 6 nM
IC50 [8]: 1390 nM
IC50 [9]: 50 nM
Assay M RLM CI(int) [12]: 55 µL/min/mg
IC50 [10]: 1190 nM
IC50 [11]: 15 nM
SMILES: Cc1ncc(-c2nc(-c3cc(S(=O)(=O)NC4CC(O)C4)ccc3C)cnc2N)s1 (mixture of isomers) [Example 43, 3-(5-Amino-6-(2-methylthiazol-5-yl)pyrazin-2-yl)-N-(3-hydroxycyclobutyl)-4-methylbenzenesulfonamide]

IC50 [1]: > 9100 nM
IC50 [2]: > 9100 nM
IC50 [3]: 4410 nM
IC50 [5]: 170 nM
IC50 [6]: > 9100 nM
IC50 [7]: 34 nM
IC50 [9]: 220 nM
Assay M RLM CI(int) [12]: 48 µL/min/mg
IC50 [11]: 1280 nM
SMILES: Cc1cc(-c2nc(-c3cc(S(=O)(=O)NCCC(C)(C)O)ccc3C)cnc2N)n(C)n1 [Example 119.36]

IC50 [1]: 5750 nM
IC50 [2]: 7200 nM
IC50 [3]: 5300 nM
IC50 [5]: 680 nM
IC50 [6]: > 9550 nM
IC50 [7]: 3 nM
IC50 [9]: 500 nM
Assay M RLM CI(int) [12]: 95 µL/min/mg
IC50 [11]: 74 nM
SMILES: Cc1ccc(S(=O)(=O)NC[C@H]2C[C@@H](O)C2)cc1-c1cnc(N)c(-c2cc(C3CC3)no2)n1 [Example 100, 3-(5-Amino-6-(3-cyclopropylisoxazol-5-yl)pyrazin-2-yl)-N-(((1s,3s)-3-hydroxycyclobutyl)methyl)-4-methylbenzenesulfonamide]

IC50 [1]: 1550 nM
IC50 [2]: > 9550 nM
IC50 [3]: 2200 nM
IC50 [5]: 180 nM
IC50 [6]: 2350 nM
IC50 [7]: 13 nM
IC50 [9]: 240 nM
Assay M RLM CI(int) [12]: 152 µL/min/mg
IC50 [11]: 66 nM
SMILES: Cc1ccc(S(=O)(=O)NCCC(C)(C)O)cc1-c1cnc(N)c(-c2cc(C3CC3)no2)n1 [Example 78, 3-(5-Amino-6-(3-cyclopropylisoxazol-5-yl)pyrazin-2-yl)-N-(3-hydroxy-3-methylbutyl)-4-methylbenzenesulfonamide]

IC50 [1]: > 10000 nM
IC50 [2]: > 10000 nM
IC50 [3]: 1400 nM
IC50 [5]: 840 nM
IC50 [6]: 3800 nM
IC50 [7]: 36 nM
IC50 [9]: 760 nM
Assay M RLM CI(int) [12]: 92 µL/min/mg
IC50 [11]: 40 nM
SMILES: Cc1nc(-c2nc(-c3cc(S(=O)(=O)NCC(C)(C)O)ccc3C)cnc2N)c(C)s1 [Example 40, 3-(5-Amino-6-(2,5-dimethylthiazol-4-yl)pyrazin-2-yl)-N-(2-hydroxy-2-methylpropyl)-4-methylbenzenesulfonamide]

IC50 [1]: 4950 nM
IC50 [2]: 4300 nM
IC50 [3]: 2450 nM
IC50 [5]: 760 nM
IC50 [6]: 3700 nM
IC50 [7]: 42 nM
IC50 [9]: 370 nM
Assay M RLM CI(int) [12]: 42 µL/min/mg
IC50 [11]: 493 nM
SMILES: Cc1ccc(S(=O)(=O)NCC2COC2)cc1-c1cnc(N)c(-n2cncn2)n1 [Example 131, 3-(5-Amino-6-(1H-1,2,4-triazol-1-yl)pyrazin-2-yl)-4-methyl-N-(oxetan-3-ylmethyl)benzenesulfonamide]
